Source: ChEMBL document CHEMBL1201862, “PubChem BioAssay data set” (2004)
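Following 48 hours of exposure in 96-well plates, responses at five concentrations were used to interpolate endpoints linearly. GI50: concentration for 50% inhibition of growth.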 The source made the active and inactive calls. No stated cut-off is given here; in the data, active = GI50 up to about 1.1 µM and inactive = higher.

How the values were obtained:
Test in all cases: growth of human tumour cells (NCI), 48 h
786-0 = test system: 786-0
A498 = test system: A498
CCRF-CEM = test system: CCRF-CEM
EKVX = test system: EKVX
HCT-15 = test system: HCT-15
HOP-92 = test system: HOP-92
KM12 = test system: KM12
M14 = test system: M14
MDA-MB-231 = test system: MDA-MB-231
MDA-N = test system: MDA-N
OVCAR-8 = test system: OVCAR-8
SF-539 = test system: SF-539
SK-MEL-28 = test system: SK-MEL-28
SK-MEL-2 = test system: SK-MEL-2
SK-OV-3 = test system: SK-OV-3
SNB-75 = test system: SNB-75
SR = test system: SR
U-251 = test system: U-251
UACC-62 = test system: UACC-62
K562 = test system: K562

| SMILES | GI50 (786-0) | GI50 (A498) | GI50 (CCRF-CEM) | GI50 (EKVX) | GI50 (HCT-15) [µM] | GI50 (HOP-92) | GI50 (KM12) | GI50 (M14) | GI50 (MDA-MB-231) | GI50 (MDA-N) | GI50 (OVCAR-8) | GI50 (SF-539) | GI50 (SK-MEL-28) | GI50 (SK-MEL-2) | GI50 (SK-OV-3) | GI50 (SNB-75) | GI50 (SR) | GI50 (U-251) | GI50 (UACC-62) | GI50 (K562) |
| --- | --- | --- | --- | --- | --- | --- | --- | --- | --- | --- | --- | --- | --- | --- | --- | --- | --- | --- | --- | --- |
| C1CNCCN2CCCNCCN(C1)CC2 | > 100 µM (inactive) | > 100 µM (inactive) | 2 µM (inactive) | > 100 µM (inactive) | > 100 | > 100 µM (inactive) | > 100 µM (inactive) | > 100 µM (inactive) | > 100 µM (inactive) | > 100 µM (inactive) | > 100 µM (inactive) | > 100 µM (inactive) | > 100 µM (inactive) | > 100 µM (inactive) | > 100 µM (inactive) | > 100 µM (inactive) | > 100 µM (inactive) | > 100 µM (inactive) | > 100 µM (inactive) | – |
| O=C(O)/C(=C\c1ccc(O)cc1)c1cccc2ccccc12 | > 100 µM (inactive) | > 100 µM (inactive) | – | 90.6 µM (inactive) | > 100 | > 100 µM (inactive) | > 100 µM (inactive) | > 100 µM (inactive) | > 100 µM (inactive) | > 100 µM (inactive) | > 100 µM (inactive) | – | > 100 µM (inactive) | > 100 µM (inactive) | – | > 100 µM (inactive) | > 100 µM (inactive) | > 100 µM (inactive) | > 100 µM (inactive) | > 100 µM (inactive) |
| O=C(Cc1nc2ncccc2[nH]c1=O)c1c[nH]c2ccccc12 | 18.2 µM (inactive) | 17.7 µM (inactive) | 13.4 µM (inactive) | 21.4 µM (inactive) | 31.6 | 17.7 µM (inactive) | 17.5 µM (inactive) | 21 µM (inactive) | 16.7 µM (inactive) | 19.7 µM (inactive) | 23.4 µM (inactive) | 16.6 µM (inactive) | 15.1 µM (inactive) | 14.9 µM (inactive) | 16.3 µM (inactive) | – | 30 µM (inactive) | 17.7 µM (inactive) | 16.8 µM (inactive) | 21.4 µM (inactive) |
| Cc1ccc2cc3c(ccc4ccccc43)c3c2c1CC3 [3-METHYLCHOLANTHRENE] | > 100 µM (inactive) | – | > 100 µM (inactive) | 75.5 µM (inactive) | 9.82 | > 100 µM (inactive) | > 100 µM (inactive) | > 100 µM (inactive) | > 100 µM (inactive) | > 100 µM (inactive) | > 100 µM (inactive) | > 100 µM (inactive) | > 100 µM (inactive) | > 100 µM (inactive) | > 100 µM (inactive) | > 100 µM (inactive) | > 100 µM (inactive) | > 100 µM (inactive) | > 100 µM (inactive) | > 100 µM (inactive) |
| CC[C@]1(Cc2ccc(OC)c(OC)c2)C2CC(C(=O)OC)ON2O[C@H](OCc2ccccc2)[C@@H]1OC(C)=O (stereo partly drawn) | > 100 µM (inactive) | > 100 µM (inactive) | > 100 µM (inactive) | > 100 µM (inactive) | > 100 | 99.3 µM (inactive) | > 100 µM (inactive) | > 100 µM (inactive) | > 100 µM (inactive) | > 100 µM (inactive) | > 100 µM (inactive) | – | > 100 µM (inactive) | > 100 µM (inactive) | > 100 µM (inactive) | > 100 µM (inactive) | > 100 µM (inactive) | > 100 µM (inactive) | > 100 µM (inactive) | > 100 µM (inactive) |
| CN(C(=O)C1=CCC2(CC1)OCCO2)c1ccccc1OS(=O)(=O)C(F)(F)F | 24.3 µM (inactive) | > 100 µM (inactive) | 43.2 µM (inactive) | > 100 µM (inactive) | 59 | > 100 µM (inactive) | 25.3 µM (inactive) | > 100 µM (inactive) | > 100 µM (inactive) | > 100 µM (inactive) | 81.5 µM (inactive) | – | > 100 µM (inactive) | > 100 µM (inactive) | > 100 µM (inactive) | 15.5 µM (inactive) | > 100 µM (inactive) | > 100 µM (inactive) | > 100 µM (inactive) | > 100 µM (inactive) |
| CC(C)=CC[C@]12CCN(C)[C@H]1N(S(=O)(=O)c1ccccc1)c1ccccc12 | 42.3 µM (inactive) | > 100 µM (inactive) | > 50.7 µM (inactive) | > 24.2 µM (inactive) | > 47.2 | 3.38 µM (inactive) | 26.1 µM (inactive) | – | > 52.4 µM (inactive) | 48.2 µM (inactive) | > 64 µM (inactive) | 58.9 µM (inactive) | > 64.6 µM (inactive) | 15.5 µM (inactive) | 6.25 µM (inactive) | 17.3 µM (inactive) | 20.7 µM (inactive) | 32.7 µM (inactive) | > 35.6 µM (inactive) | > 43.2 µM (inactive) |
| CC(C)(C)OC(=O)n1cc(C2CN(O)C(=O)C23CCC(=O)N3Cc2ccccc2)c2ccccc21 (stereo not drawn) | 45.9 µM (inactive) | 24.8 µM (inactive) | 83.2 µM (inactive) | 21.9 µM (inactive) | – | 4.46 µM (inactive) | 44.1 µM (inactive) | > 100 µM (inactive) | 28.8 µM (inactive) | 52.7 µM (inactive) | – | 49 µM (inactive) | – | 14.8 µM (inactive) | 23.9 µM (inactive) | 32.7 µM (inactive) | 44.6 µM (inactive) | 36.9 µM (inactive) | 68.1 µM (inactive) | 78.7 µM (inactive) |
